# Laboratory results: PMC12752627, “Discovery of a Potent and Selective TEAD Degrader with Durable Degradation Activity” (Advanced Science, 2025)
# Tests used:
# 867 cancer cell lines = experiment: PRISM assay (barcoded cell line screening, 5 days); type: cell-based; set-up: KG-FP-003-AUC: scale not given here;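 also: top test concentration 10 mM in eight-point dilution series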
# Method: The principle of the PRISM assay has been described elsewhere and was conducted as previously outlined by the PRISM team at the Broad Institute.^[ [14], [31] ^] In PRISM (MTS027) experiments, KG‐FP‐003 was tested across 867 different cancer cell lines. Cells were treated with eight concentration gradients, ranging from 4.6 nM to […], in triplicate dilutions over a period of five days. Each plate was treated with 20 µM bortezomib as a positive control and DMSO as a negative control. Three replicate experiments were performed for each compound. The resulting data were analyzed using GraphPad PRISM 9.5.
# [1] = test system: MSTO-211H CRBN knockout cells; experiment: Cell viability assay, CRBN-knockout MSTO-211H; type: cell-based; conditions: Homo sapiens, Figure 3D, read-out: MSTO-211H: CRBN KO IC50
# Method: Cells were seeded at a density of 1000 cells per well in 96‐well flat‐bottomed cell culture plates and cultured overnight at 37 °C with 5% CO2 to allow for cell attachment. The following day, different concentrations of compounds were added using an I‐DOT dispenser. After 72 h, 25 µL of CellTiter‐Meiluncell Luminescent Cell Viability Reagent (Meilunbio, #PWL111‐2) was added and incubated for 15 min at room temperature. Luminescence signals were then measured using an Envision plate reader (Revvity). Data were analyzed using GraphPad Prism 9.5 software.^[ [30] ^]
# NCI-H226 cells = experiment: DIA proteomics in NCI-H226 cells; type: cell-based, Homo sapiens; conditions: 100 nM, 24 h
# Method: Cells were seeded in 6‐well plates at 1 × 10⁶ cells well^−1 and treated with 100 nM KG‐FP‐003 (n = 3). After 24 h incubation, cells were harvested, washed with ice‐cold PBS, and stored at −80 °C. Cell pellets were lysed in 4 volumes of lysis buffer (1% SDS, 1% protease inhibitor cocktail) followed by 3 min sonication on ice. After centrifugation (12 000 g, 10 min, 4 °C), supernatants were collected for BCA protein quantification. Proteins were reduced with 5 mM DTT (56 °C, 30 min), alkylated with 11 mM iodoacetamide (RT, dark, 15 min), and diluted with 200 mM TEAB to reduce urea concentration below 2 M. Trypsin digestion (1:50 enzyme‐to‐protein ratio) was performed at 37 °C overnight followed by additional 4 h digestion. Peptides were desalted using Strata‐X SPE columns. […] MS analysis was performed on a timsTOF Pro mass spectrometer in dia‐PASEF mode (ESI voltage: 1.75 kV; scan range: 300–1500 m z^−1). DIA data were processed using DIA‐NN (v1.8) against the Homo_sapiens_9606_SP_20 231 220.fasta database (20429 entries) with reversed decoys, using trypsin as the cleavage enzyme. Fixed modifications included N‐terminal methionine excision and carbamidomethylation of cysteine, with FDR set at <1%.
structure (smiles),measurement,setting,value
CNC(=O)c1cc2c(c(F)c1-c1c(Cl)c(F)cc3c1C[C@@](CN[C@H]1CC[C@H](C(=O)N4CCC(CC5CCN(C(=O)COc6ccc(N7CCC(=O)NC7=O)c(C)c6)CC5)CC4)CC1)(c1ccccc1)O3)[C@@H](O)[C@@H](C)C2 [KG-FP-003],KG-FP-003-AUC,867 cancer cell lines; DANG_PANCREAS ACH-000243 PR500,0.98
same,KG-FP-003-AUC,867 cancer cell lines; DAOY_CENTRAL_NERVOUS_SYSTEM ACH-000211 PR300,0.93
same,KG-FP-003-AUC,867 cancer cell lines; DAOY_CENTRAL_NERVOUS_SYSTEM ACH-000211 PR500,0.92
same,KG-FP-003-AUC,867 cancer cell lines; DBTRG05MG_CENTRAL_NERVOUS_SYSTEM ACH-000863 PR500,0.64
same,KG-FP-003-AUC,867 cancer cell lines; DEL_HAEMATOPOIETIC_AND_LYMPHOID_TISSUE ACH-000233 PR300,0.87
same,KG-FP-003-AUC,867 cancer cell lines; DETROIT562_UPPER_AERODIGESTIVE_TRACT ACH-000207 PR500,0.81
same,KG-FP-003-AUC,867 cancer cell lines; DKMG_CENTRAL_NERVOUS_SYSTEM ACH-000244 PR500,0.85
same,KG-FP-003-AUC,867 cancer cell lines; DL_SOFT_TISSUE ACH-001059 PR300,0.70
same,KG-FP-003-AUC,867 cancer cell lines; DMS53_LUNG ACH-000698 PR300,1.00
same,KG-FP-003-AUC,867 cancer cell lines; DMS273_LUNG ACH-000749 PR500,0.99
same,KG-FP-003-AUC,867 cancer cell lines; DND41_HAEMATOPOIETIC_AND_LYMPHOID_TISSUE ACH-000981 PR300,0.75
same,KG-FP-003-AUC,867 cancer cell lines; DOHH2_HAEMATOPOIETIC_AND_LYMPHOID_TISSUE ACH-000056 PR300,0.76
same,KG-FP-003-AUC,867 cancer cell lines; DOTC24510_CERVIX ACH-001341 PR300,0.78
same,KG-FP-003-AUC,867 cancer cell lines; DU145_PROSTATE ACH-000979 PR500,0.93
same,KG-FP-003-AUC,867 cancer cell lines; DU4475_BREAST ACH-000258 PR300,0.97
same,KG-FP-003-AUC,867 cancer cell lines; DV90_LUNG ACH-000925 PR500,1.00
same,KG-FP-003-AUC,867 cancer cell lines; EB1_HAEMATOPOIETIC_AND_LYMPHOID_TISSUE ACH-000877 PR300,0.99
same,KG-FP-003-AUC,867 cancer cell lines; EBC1_LUNG ACH-000563 PR500,0.77
same,KG-FP-003-AUC,867 cancer cell lines; ECC2_BILIARY_TRACT ACH-001997 PR300,0.76
same,KG-FP-003-AUC,867 cancer cell lines; ECGI10_OESOPHAGUS ACH-000305 PR500,0.96
same,KG-FP-003-AUC,867 cancer cell lines; EFE184_ENDOMETRIUM ACH-000435 PR300,0.72
same,KG-FP-003-AUC,867 cancer cell lines; EFM19_BREAST ACH-000330 PR300,0.99
same,KG-FP-003-AUC,867 cancer cell lines; EFM192A_BREAST ACH-000117 PR500,0.99
same,KG-FP-003-AUC,867 cancer cell lines; EFO21_OVARY ACH-000308 PR500,0.71
same,KG-FP-003-AUC,867 cancer cell lines; EFO27_OVARY ACH-000936 PR500,0.77
same,KG-FP-003-AUC,867 cancer cell lines; EGI1_BILIARY_TRACT ACH-001494 PR300,0.88
same,KG-FP-003-AUC,867 cancer cell lines; EKVX_LUNG ACH-000706 PR300,0.71
same,KG-FP-003-AUC,867 cancer cell lines; EM2_HAEMATOPOIETIC_AND_LYMPHOID_TISSUE ACH-000295 PR300,0.94
same,KG-FP-003-AUC,867 cancer cell lines; EMTOKA_ENDOMETRIUM ACH-001495 PR300,0.83
same,KG-FP-003-AUC,867 cancer cell lines; EOL1_HAEMATOPOIETIC_AND_LYMPHOID_TISSUE ACH-000198 PR300,0.69
same,KG-FP-003-AUC,867 cancer cell lines; ES2_OVARY ACH-000906 PR500,0.62
same,KG-FP-003-AUC,867 cancer cell lines; ESS1_ENDOMETRIUM ACH-000913 PR500,0.56
same,KG-FP-003-AUC,867 cancer cell lines; EW8_BONE ACH-000499 PR300,0.98
same,KG-FP-003-AUC,867 cancer cell lines; EWS502_BONE ACH-000279 PR300,0.99
same,KG-FP-003-AUC,867 cancer cell lines; EWS502_BONE ACH-000279 PR500,0.99
same,KG-FP-003-AUC,867 cancer cell lines; FADU_UPPER_AERODIGESTIVE_TRACT ACH-000846 PR500,0.92
same,KG-FP-003-AUC,867 cancer cell lines; FLO1_OESOPHAGUS ACH-001500 PR300,0.75
same,KG-FP-003-AUC,867 cancer cell lines; FTC133_THYROID ACH-000903 PR500,0.99
same,KG-FP-003-AUC,867 cancer cell lines; FTC238_THYROID ACH-000897 PR500,0.91
same,KG-FP-003-AUC,867 cancer cell lines; G292CLONEA141B1_BONE ACH-000082 PR300,0.64
same,KG-FP-003-AUC,867 cancer cell lines; G292CLONEA141B1_BONE ACH-000082 PR500,0.53
same,KG-FP-003-AUC,867 cancer cell lines; G361_SKIN ACH-000572 PR500,1.00
same,KG-FP-003-AUC,867 cancer cell lines; G402_SOFT_TISSUE ACH-000375 PR300,0.43
same,KG-FP-003-AUC,867 cancer cell lines; G402_SOFT_TISSUE ACH-000375 PR500,0.69
same,KG-FP-003-AUC,867 cancer cell lines; G415_BILIARY_TRACT ACH-001850 PR300,0.65
same,KG-FP-003-AUC,867 cancer cell lines; GAMG_CENTRAL_NERVOUS_SYSTEM ACH-000098 PR500,0.45
same,KG-FP-003-AUC,867 cancer cell lines; GB2_BILIARY_TRACT ACH-001961 PR300,0.92
same,KG-FP-003-AUC,867 cancer cell lines; GCIY_STOMACH ACH-000047 PR500,0.98
same,KG-FP-003-AUC,867 cancer cell lines; GCT27_TESTIS ACH-001502 PR300,0.73
same,KG-FP-003-AUC,867 cancer cell lines; GCT_SOFT_TISSUE ACH-000835 PR500,0.53
same,KG-FP-003-AUC,867 cancer cell lines; GI1_CENTRAL_NERVOUS_SYSTEM ACH-000756 PR500,0.74
same,IC50,[1],543 ± 50 nM
same,Proteome-wide selectivity,NCI-H226 cells,selective downregulation of TEAD1 and TEAD4
